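Grown in 96-well plates, cells were treated for 48 hours with each compound at five concentrations. Insufficient inhibition: endpoint recorded as highest concentration tested. TGI: concentration producing complete growth inhibition.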
Assays:
Assay in all cases: inhibition of tumour cell growth, NCI panel, 48 h
[1] = system: HCT-116 colon
[2] = system: SR leukemia
[3] = system: HS 578T breast

Measured: TGI

O=C(O)C(=C\c1ccc2c(c1)OCO2)/C(=C/c1ccc2c(c1)OCO2)C(=O)O
> 100 µM: [1] | [2] | [3]
